From patent US11691968B2, “Compound having KDM5 inhibitory activity and pharmaceutical use thereof” (ONO PHARMACEUTICAL CO., LTD., priority 2020, dated 2023)

Legend:
KDM5A = KDM5A (Homo sapiens (Human), UniProt P29375); assay: Biochemical KDM5A Inhibition Assay (HTRF); conditions: KDM5A protein, biotin-labelled H3K4-Me3 substrate
Experimental: Biochemical KDM5A Inhibition Assay
Using 384-well white Greiner784075 (Greiner), representative compounds were characterized for their inhibition of KDM5A using HTRF® technology (Cisbio Bioassays). Briefly, the test compounds, reference compounds, and DMSO control (typical compound concentration range 1 μM-[…], final assay concentration (FAC*) of DMSO 0.5%) were added to 384-well plate by the Echo® acoustic dispensing platform (Labcyte). Five (5) 1l of KDM5A protein (produced by the method described in Nat Chem Biol 12, 531-538 (2016)). (5-20 nM FAC*) in assay buffer (50 mM MES, 50 mM NaCl, 1 mM TCEP, 0.01% v/v Tween 20, 0.03% BSA, pH 6.5) was added to wells and plates were incubated for 10-20 minutes at 25 degrees celsius. Then, 5 μl of alpha-ketoglutaric acid (100 μM FAC*), biotin-labelled H3K4-Me3 substrate (Anaspec Cat #AS-64357-1; 200 nM FAC*), Fe(II)SO4 (100 μM FAC*) and ascorbic acid (2 mM FAC*) in assay buffer was added to wells and plates were incubated for 20 minutes at room temperature. The reaction was stopped with the addition of 10 μl of anti-H3K4-Me2-Eu(K) (Cisbio Bioassays Cat #61KA2KAH; 0.75 nM FAC**)+Streptavidin XL665 (Cisbio Bioassays Cat #610SAXLB; 25 nM FAC**) in HTRF detection buffer (Cisbio Bioassays Cat #62SDBRDF). The mixture was incubated for 30 minutes at room temperature before 340 nm excitation and measurement of dual emission at 620 nm and 665 run. *FAC: final assay concentration calculated based on 10 μl of the assay buffer**FAC: final assay concentration calculated based on 20 μl of the detection buffer
The raw data (a 665 nm and a 620 nm reading from each well) for individual assay plates were analyzed. The ratio of emissions was calculated using the following calculation: Ratio=(665 nm emission/620 nm emission)×10000. […] Compound IC50 values were calculated from graphs of % inhibition plotted against compound concentration, using a four parameter curve fit. [Results]

[1] = Metabolic Stability in Human Liver Microsomes; type: in vitro ADME
Experimental: Metabolic Stability in Human Liver Microsomes
Human liver microsome (BD Gentest Corporation, Cat No. #452161) incubations were conducted in duplicate in 96-well plates. Each well contains 40 μL of 0.1 M potassium phosphate buffer (pH 7.4), 4.125 mM MgCl2, 0.625 mg/mL liver microsomes, and test compound (1.25 μM). After 5-min preincubation at 37° C., 10 uL of 5.0 mM NADPH in 0.1M potassium phosphate buffer was added to initiate the enzymatic reaction. The final component concentrations are 0.1M potassium phosphate buffer (pH 7.4), 1.0 mM NADPH, 3.3 mM MgCl2, 0.5 mg/mL liver microsomes, and test compound (1.0 μM). Reactions were terminated at 0 and 60 min by adding 200 μL of ice-cold acetonitrile containing internal standard.
LC-MS/MS analysis was conducted as specified below.
The remaining at 60 min (%) of test compound was calculated from the peak area ratio (test compound/internal standard) of samples collected 0 and 60 min after the start of the reaction according to the formula described below. Remaining at 60 min (%)=peak area ratio of sample collected at 60 min/peak area ratio of sample collected at 0 min×100 [Results]

[2] = 0.5 mg/mL liver microsomes, 1.0 μM test compound, 1.0 mM NADPH, 37° C., 60 min

Chain of KDM5A (P29375 whole entry): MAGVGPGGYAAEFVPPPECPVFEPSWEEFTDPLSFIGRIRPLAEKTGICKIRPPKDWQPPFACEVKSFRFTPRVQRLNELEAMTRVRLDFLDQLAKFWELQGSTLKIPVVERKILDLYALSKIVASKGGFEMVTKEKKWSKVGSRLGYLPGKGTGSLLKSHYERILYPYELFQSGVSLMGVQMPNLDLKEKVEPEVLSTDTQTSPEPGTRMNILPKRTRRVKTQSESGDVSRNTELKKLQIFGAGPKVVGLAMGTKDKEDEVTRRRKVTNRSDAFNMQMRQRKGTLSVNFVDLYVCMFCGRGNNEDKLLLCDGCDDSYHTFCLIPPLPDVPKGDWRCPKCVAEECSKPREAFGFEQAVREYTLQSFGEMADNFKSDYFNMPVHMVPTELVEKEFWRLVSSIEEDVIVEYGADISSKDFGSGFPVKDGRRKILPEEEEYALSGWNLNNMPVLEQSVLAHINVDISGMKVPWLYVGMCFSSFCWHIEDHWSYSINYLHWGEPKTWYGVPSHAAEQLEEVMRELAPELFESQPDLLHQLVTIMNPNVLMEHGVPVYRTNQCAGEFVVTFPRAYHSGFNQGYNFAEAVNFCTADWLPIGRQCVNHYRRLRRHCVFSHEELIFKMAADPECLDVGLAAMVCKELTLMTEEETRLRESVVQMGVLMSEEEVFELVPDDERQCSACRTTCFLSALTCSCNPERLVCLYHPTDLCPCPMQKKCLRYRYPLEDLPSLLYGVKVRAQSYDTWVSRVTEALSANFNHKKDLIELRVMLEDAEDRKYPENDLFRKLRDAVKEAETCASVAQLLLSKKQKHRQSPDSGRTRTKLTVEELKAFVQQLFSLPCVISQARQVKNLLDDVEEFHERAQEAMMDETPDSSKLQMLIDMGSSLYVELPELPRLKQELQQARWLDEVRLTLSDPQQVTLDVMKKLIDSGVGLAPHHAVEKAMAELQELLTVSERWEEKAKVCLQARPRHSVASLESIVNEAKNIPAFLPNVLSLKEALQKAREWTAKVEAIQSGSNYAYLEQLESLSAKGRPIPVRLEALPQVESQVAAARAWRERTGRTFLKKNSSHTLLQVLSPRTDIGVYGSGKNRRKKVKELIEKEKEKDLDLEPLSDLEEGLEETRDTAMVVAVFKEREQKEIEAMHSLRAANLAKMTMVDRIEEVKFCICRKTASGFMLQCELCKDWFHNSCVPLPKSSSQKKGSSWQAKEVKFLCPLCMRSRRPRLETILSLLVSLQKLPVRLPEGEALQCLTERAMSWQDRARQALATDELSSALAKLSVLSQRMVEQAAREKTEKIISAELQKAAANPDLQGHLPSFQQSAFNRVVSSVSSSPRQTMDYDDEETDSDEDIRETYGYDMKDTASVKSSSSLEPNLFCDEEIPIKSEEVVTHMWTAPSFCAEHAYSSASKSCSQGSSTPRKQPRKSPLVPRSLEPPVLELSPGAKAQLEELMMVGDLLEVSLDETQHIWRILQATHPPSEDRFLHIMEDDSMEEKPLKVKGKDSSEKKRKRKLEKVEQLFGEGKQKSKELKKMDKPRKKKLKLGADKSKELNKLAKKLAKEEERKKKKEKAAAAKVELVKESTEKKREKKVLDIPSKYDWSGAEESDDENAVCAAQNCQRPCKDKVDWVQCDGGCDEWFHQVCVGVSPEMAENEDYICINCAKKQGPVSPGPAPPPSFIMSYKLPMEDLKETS

SMILES	IC50 (KDM5A)	Metabolic stability in human liver microsomes (% remaining at 60 min) ([1]; human, microsomes, 1 h)	Metabolic stability in human liver microsomes (% remaining at 60 min) [1, 2]
CC(n1cnc(C(=O)N2C[C@@H]3C(C4=NOC(C)(C)C4)[C@@H]3C2)c1)C(F)(F)F (stereo partly drawn) [Example 9, [(1R,5S,6r)-6-(5,5-dimethyl-4,5-dihydro-1,2-oxazol-3-yl)-3-azabicyclo[3.1.0]hex-3-yl][1-(1,1,1-trifluoropropan-2-yl)-1H-imidazol-4-yl]methanone]	400 nM	93%	
C[C@@H](c1ccccc1C#N)n1cnc(C(=O)N2C[C@@H]3[C@H](C2)[C@H]3C2=NOC(C)(C)C2)c1 [Example 22, 2-[(1S)-1-(4-{[(1R,5S,6S)-6-(5,5-dimethyl-4,5-dihydro-1,2-oxazol-3-yl)-3-azabicyclo[3.1.0]hex-3-yl]carbonyl}-1H-imidazol-1-yl)ethyl]benzonitrile]	400 nM		
C[C@@H](c1ccc(C#N)cc1)n1cnc(C(=O)N2C[C@@H]3[C@H](C2)[C@H]3C2=NOC(C)(C)C2)c1 [Example 24, 4-[(1S)-1-(4-{[(1R,5S,6S)-6-(5,5-dimethyl-4,5-dihydro-1,2-oxazol-3-yl)-3-azabicyclo[3.1.0]hex-3-yl]carbonyl}-1H-imidazol-1-yl)ethyl]benzonitrile]	200 nM	101%	
C[C@@H](c1nccs1)n1cnc(C(=O)N2C[C@@H]3[C@H](C2)[C@H]3C2=NOC(C)(C)C2)c1 [Example 27, [(1R,5S,6S)-6-(5,5-dimethyl-4,5-dihydro-1,2-oxazol-3-yl)-3-azabicyclo[3.1.0]hex-3-yl]{1-[(1S)-1-(1,3-thiazol-2-yl)ethyl]-1H-imidazol-4-yl}methanone]	1000 nM	97%	
CC(C)n1cnc(C(=O)N2C[C@@H]3C(C4=NOC(C)(C(F)F)C4)[C@@H]3C2)c1 (stereo partly drawn) [Example 40, {(1R,5S,6r)-6-[5-(difluoromethyl)-5-methyl-4,5-dihydro-1,2-oxazol-3-yl]-3-azabicyclo[3.1.0]hex-3-yl}(1-isopropyl-1H-imidazol-4-yl)methanone]	200 nM		103%
Cc1onc([C@H]2[C@@H]3CN(C(=O)c4cn(C(C)C)cn4)C[C@@H]32)c1-c1ccccc1 [Example 55, (1-isopropyl-1H-imidazol-4-yl)[(1R,5S,6r)-6-(5-methyl-4-phenyl-1,2-oxazol-3-yl)-3-azabicyclo[3.1.0]hex-3-yl]methanone]	20 nM		
Cc1cc([C@H]2[C@@H]3CN(C(=O)c4cn(C(C)C)cn4)C[C@@H]32)no1 [Example 56, (1-isopropyl-1H-imidazol-4-yl)[(1R,5S,6r)-6-(5-methyl-1,2-oxazol-3-yl)-3-azabicyclo[3.1.0]hex-3-yl]methanone]	200 nM		
CC(C)n1cnc(C(=O)N2C[C@@H]3[C@H](C2)[C@H]3C2=NOC(C)(C)N2C)c1 [Example 59, (1-isopropyl-1H-imidazol-4-yl)[(1R,5S,6r)-6-(4,5,5-trimethyl-4,5-dihydro-1,2,4-oxadiazol-3-yl)-3-azabicyclo[3.1.0]hex-3-yl]methanone]	20 nM	100%	
CCN1C([C@H]2[C@@H]3CN(C(=O)c4cn(C(C)C)cn4)C[C@@H]32)=NOC1(C)C [Example 60, [(1R,5S,6r)-6-(4-ethyl-5,5-dimethyl-4,5-dihydro-1,2,4-oxadiazol-3-yl)-3-azabicyclo[3.1.0]hex-3-yl](1-isopropyl-1H-imidazol-4-yl)methanone]	200 nM	102%	
CC(C)n1cnc(C(=O)N2C[C@@H]3[C@H](C2)[C@H]3c2nnn3ccccc23)c1 [Example 62, (1-isopropyl-1H-imidazol-4-yl)[(1R,5S,6r)-6-([1,2,3]triazolo[1,5-a]pyridin-3-yl)-3-azabicyclo[3.1.0]hex-3-yl]methanone]	10 nM	83%	
CC(C)n1cnc(C(=O)N2C[C@@H]3[C@H](C2)[C@H]3c2nnn[nH]2)c1 [Example 63, (1-isopropyl-1H-imidazol-4-yl)[(1R,5S,6r)-6-(1H-tetrazol-5-yl)-3-azabicyclo[3.1.0]hex-3-yl]methanone]	10 nM		
CC(C)n1cnc(C(=O)N2C[C@@H]3[C@H](C2)[C@H]3C(=O)NC(C)(C)C)c1 [Example 65, (1R,5S,6r)-N-tert-butyl-3-[1-(propan-2-yl)-1H-imidazole-4-carbonyl]-3-azabicyclo[3.1.0]hexane-6-carboxamide]	20 nM		93%
CC(C)n1cnc(C(=O)N2C[C@@H]3[C@H](C2)[C@H]3C(=O)N(C)C(C)(C)C)c1 [Example 66, (1R,5S,6r)-N-tert-butyl-N-methyl-3-[1-(propan-2-yl)-1H-imidazole-4-carbonyl]-3-azabicyclo[3.1.0]hexane-6-carboxamide]	30 nM		89%
CC(C)n1cnc(C(=O)N2C[C@@H]3[C@H](C2)[C@H]3C(=O)N(C)C2(C#N)CC2)c1 [Example 69, (1R,5S,6r)-N-(1-cyanocyclopropyl)-N-methyl-3-[1-(propan-2-yl)-1H-imidazole-4-carbonyl]-3-azabicyclo[3.1.0]hexane-6-carboxamide]	200 nM		89%
CC(C)n1cnc(C(=O)N2C[C@@H]3[C@H](C2)[C@H]3C(=O)c2cccs2)c1 [Example 76, (1-isopropyl-1H-imidazol-4-yl)[(1R,5S,6r)-6-(2-thienylcarbonyl)-3-azabicyclo[3.1.0]hex-3-yl]methanone]	60 nM		
Cc1csc(C(=O)[C@H]2[C@@H]3CN(C(=O)c4cn(C(C)C)cn4)C[C@@H]32)c1 [Example 77, (1-isopropyl-1H-imidazol-4-yl){(1R,5S,6r)-6-[(4-methyl-2-thienyl)carbonyl]-3-azabicyclo[3.1.0]hex-3-yl}methanone]	20 nM		
Cc1cc([C@H]2[C@@H]3CN(C(=O)c4cc(C(C)C)[nH]n4)C[C@@H]32)no1 [Example 103, (5-isopropyl-1H-pyrazol-3-yl)[(1R,5S,6r)-6-(5-methyl-1,2-oxazol-3-yl)-3-azabicyclo[3.1.0]hex-3-yl]methanone]	200 nM		
Cc1c([C@H]2[C@@H]3CN(C(=O)c4cc(C(C)C)[nH]n4)C[C@@H]32)noc1C(F)F [Example 104, {(1R,5S,6r)-6-[5-(difluoromethyl)-4-methyl-1,2-oxazol-3-yl]-3-azabicyclo[3.1.0]hex-3-yl}(5-isopropyl-1H-pyrazol-3-yl)methanone]	40 nM		
Cc1onc([C@H]2[C@@H]3CN(C(=O)c4cc(C(C)C)[nH]n4)C[C@@H]32)c1-c1ccccn1 [Example 106, (5-isopropyl-1H-pyrazol-3-yl){(1R,5S,6r)-6-[5-methyl-4-(2-pyridinyl)-1,2-oxazol-3-yl]-3-azabicyclo[3.1.0]hex-3-yl}methanone]	40 nM		
CC(C)c1cc(C(=O)N2C[C@@H]3[C@H](C2)[C@H]3c2nnn3ccccc23)n[nH]1 [Example 132, (5-isopropyl-1H-pyrazol-3-yl)[(1R,5S,6r)-6-([1,2,3]triazolo[1,5-a]pyridin-3-yl)-3-azabicyclo[3.1.0]hex-3-yl]methanone]	40 nM		
CC(C)c1cc(C(=O)N2C[C@@H]3[C@H](C2)[C@H]3c2nnn[nH]2)n[nH]1 [Example 134, (5-isopropyl-1H-pyrazol-3-yl)[(1R,5S,6r)-6-(1H-tetrazol-5-yl)-3-azabicyclo[3.1.0]hex-3-yl]methanone]	4 nM		
CC(C)c1cc(C(=O)N2C[C@@H]3[C@H](C2)[C@H]3C(=O)N(C)C2(C)CC2)n[nH]1 [Example 138, (1R,5S,6r)-N-methyl-N-(1-methylcyclopropyl)-3-[5-(propan-2-yl)-1H-pyrazole-3-carbonyl]-3-azabicyclo[3.1.0]hexane-6-carboxamide]	800 nM		
